Laboratory results taken from article PMC7972453, “The allosteric modulation of complement C5 by knob domain peptides” (eLife, 2021).
Bridges are numbered along the chain shown (N, C = ends). Where no end group is shown, it is not given here.

Tests used:
[1] = system: sheep erythrocytes (classical pathway haemolysis); assay: Inhibition of classical pathway haemolysis; type: cell-based, sheep erythrocytes; normal human serum; settings: 1% serum
Description: GVB^++ or Mg EGTA buffers, which had been supplemented with 2.5% glucose (w/v), were used for the CP and AP assays, respectively. For the AP, 150 µL of rabbit erythrocytes (TCS Biosciences, Botolph Claydon, UK) were washed twice, by addition of 1 mL of buffer and centrifugation at 800 ×g for 1 min, and finally resuspended in 500 µL of buffer. For the CP, 150 µL sheep erythrocytes (TCS Biosciences, Botolph Claydon, UK) were washed twice with 1 mL of buffer and sensitised with a 1/1000 dilution of rabbit anti-sheep red blood cell stroma antibody (S1389, Sigma Aldrich, Gillingham, UK). After a 30°C/30 min incubation, with shaking, the cells were rewashed and resuspended with 500 µL of buffer. Serial dilutions of peptide were prepared in the respective buffers and normal human serum was added at 1% for the CP and 4.5% for the AP (corresponding to CH50 of the serum). Also, 90 µL of peptide–serum mixtures were plated into a V-bottom 96-well microtiter plate (Corning) and 10 µL of erythrocytes were added. Plates were incubated for 30 min at 37°C, with shaking. Finally, 50 µL of buffer was added, the plates centrifuged at 800 ×g, and 80 µL of supernatant was transferred to an ELISA plate (Nunc) and absorbance measured at 405 nm.
Table 1.7. Inhibition of classical pathway haemolysis.

[2] = system: classical pathway mediated C5a release (complement C5); assay: Inhibition of classical pathway mediated C5a release (ELISA); type: biochemical, human; settings: n=3 (K8: n=5), ND* = Not detected
Description: For the C5b ELISA, assays were run using the CP and AP Complement functional ELISA kits (Svar Life Science, Malmö, Sweden). For sample preparation, serum was diluted as per the respective protocol for the CP and AP assays. Serial dilutions of peptides were prepared and allowed to incubate with serum for 15 min at room temperature prior to plating.
For the C5a ELISA, assays were run using the Complement C5a Human ELISA Kit (Invitrogen, Renfrew, UK). For sample preparation, at the end of the 37°C incubation of the serum/peptide samples on the C5b ELISA plate, 50 µL of the diluted, activated serum was transferred to a C5a ELISA plate containing 50 µL/well of assay buffer. All subsequent experimental steps were performed as described in the protocol.
Table 1.3. Inhibition of classical pathway mediated C5a release.
Data from n=3 independent titrations, unless otherwise stated

[3] = system: classical pathway C5b deposition (complement C5); assay: Classical pathway C5b deposition ELISA; type: biochemical, human; settings: n=3 (K8: n=6), ND* = Not detected
Description: Figure 1. Functional modulation of C5 via knob domain peptides. […] Following activation of C1q via antibody Fc, C4 and C2 are cleaved and form C4bC2a (the CP C3 convertase) which cleaves C3 into C3a (not shown) and C3b. At high C3b concentrations, C4bC2aC3b (the CP […]) forms and cleaves C5 into C5a and C5b. C5b associates with C6 and forms the membrane attack complex (MAC) with C7, C8, and multiple copies of C9. […] In the presence of factor B and factor D, C3bBb (the AP C3 convertase) generates additional C3b, prompting formation of C3bBbC3b (the AP C5 convertase), which cleaves C5 into C5a and C5b, driving MAC formation. CP-driven ELISAs (C) and AP-driven ELISAs (D) are shown. For both pathways, the inhibition of C3d (the surface-associated domain of C3b, which is upstream of C5 inhibition), C5a release, and C5b neo-epitope formation and C9 deposition were tracked within the MAC. […] For the AP assays, 5% serum (v/v) gives a putative C5 concentration of 20 nM. For the CP assays, 1% serum (v/v) gives a putative C5 concentration of 4 nM, based on a reported C5 serum concentration of 397 nM/75 µg/mL ([Sjöholm, 1975]).
For the C5b ELISA, assays were run using the CP and AP Complement functional ELISA kits (Svar Life Science, Malmö, Sweden). For sample preparation, serum was diluted as per the respective protocol for the CP and AP assays. […]

C3b deposition = C3b deposition ELISA (CP and AP); type: biochemical; settings: CP (1% serum) and AP (5% serum) ELISA, anti-human C3d
Description: For the C3 and C9 ELISAs, microtiter plates (MaxiSorp; Nunc) were incubated overnight at 4°C with 50 µL of a solution of in 75 mM sodium carbonate (pH 9.6) containing either 2.5 µg/mL aggregated human IgG (Sigma-Aldrich, Gillingham, UK) for CP or 20 µg/mL zymosan (Sigma-Aldrich, Gillingham, UK) for AP. As a negative control, wells were coated with 1% (w/v) bovine serum albumin (BSA)/PBS. Microtiter plates were washed four times with 250 µL of wash buffer (50 mM Tris-HCl), 150 mM NaCl and 0.1% Tween 20 (pH 8) between each step of the procedure. Wells were blocked using 250 µL of 1% (w/v) BSA/PBS for 2 hr at room temperature. […] Complement activation was assessed through detection of deposited complement activation factors using specific antibodies against C3b (rat anti-human C3d HM2198, Hycult, Uden, The Netherlands) and C9 (goat anti-human C9, A226, Complement Technologies Tyler, TX) at a 1:1000 dilution. Bound primary antibodies were detected with […]-conjugated goat anti-rat (ab97057, Abcam, Cambridge, UK) or rabbit anti-goat (P0449, Agilent Dako, Santa Clara, CA) secondary antibodies at a 1:1000 dilution. Bound HRP-conjugated antibodies were detected using TMB One solution (Eco-TEK – manufactured by Bio-TEK, Winooski, VT) with absorbance measured at 450 nm.

SVCPDGFDWGYGCAAGSSRFCTRHDWCCYDERADSHTYGFCTGNRVENLYFQ (disulfide 3-28, 13-21, 27-41) [K8]
Average Emax ([1]; CP haemolysis, n=3, ND* = Not detected): 95.6%
inhibition of CP haemolysis (in words) ([1]; sheep erythrocytes): efficacious in the CP assay
Average Emax ([2]; CP C5a release): 57.7%
IC50 ([2]; CP, C5a Human ELISA kit (Invitrogen) on activated serum from C5b ELISA plate, read-out: Geomean IC50): 9.9 nM
Average Emax ([3]; CP C5b ELISA, preincubated 15 min RT): 68.2%
IC50 ([3]; CP functional ELISA kit (Svar), peptide preincubated with human serum 15 min RT, CP 1% serum, putative 4 nM C5, read-out: Geomean IC50): 9.3 nM
effect on C3b deposition (C3b deposition): no effect on C3b deposition was detected
